In article PMC11314561, “Design and Synthesis of Novel Aminoindazole-pyrrolo[2,3-b]pyridine Inhibitors of IKKα That Selectively Perturb Cellular Non-Canonical NF-κB Signalling” (Molecules, 2024):

Columns and labels:
Assay in all cases: kinase panel
Assay type in all cases: biochemical
CDK9/cyclin T1(h) = CDK9/cyclin T1(h) (Homo sapiens, UniProt P50750)
How it was run: (§1)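 Values are percent inhibition from kinome-wide profiling of three series compounds across 231 kinases, with a structurally similar analogue tested on only 98 selected kinases.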

TAO1(h) = target: T1, TAO1(h) (Homo sapiens, UniProt Q7L7X3)
T1 sequence (Q7L7X3 1-1001): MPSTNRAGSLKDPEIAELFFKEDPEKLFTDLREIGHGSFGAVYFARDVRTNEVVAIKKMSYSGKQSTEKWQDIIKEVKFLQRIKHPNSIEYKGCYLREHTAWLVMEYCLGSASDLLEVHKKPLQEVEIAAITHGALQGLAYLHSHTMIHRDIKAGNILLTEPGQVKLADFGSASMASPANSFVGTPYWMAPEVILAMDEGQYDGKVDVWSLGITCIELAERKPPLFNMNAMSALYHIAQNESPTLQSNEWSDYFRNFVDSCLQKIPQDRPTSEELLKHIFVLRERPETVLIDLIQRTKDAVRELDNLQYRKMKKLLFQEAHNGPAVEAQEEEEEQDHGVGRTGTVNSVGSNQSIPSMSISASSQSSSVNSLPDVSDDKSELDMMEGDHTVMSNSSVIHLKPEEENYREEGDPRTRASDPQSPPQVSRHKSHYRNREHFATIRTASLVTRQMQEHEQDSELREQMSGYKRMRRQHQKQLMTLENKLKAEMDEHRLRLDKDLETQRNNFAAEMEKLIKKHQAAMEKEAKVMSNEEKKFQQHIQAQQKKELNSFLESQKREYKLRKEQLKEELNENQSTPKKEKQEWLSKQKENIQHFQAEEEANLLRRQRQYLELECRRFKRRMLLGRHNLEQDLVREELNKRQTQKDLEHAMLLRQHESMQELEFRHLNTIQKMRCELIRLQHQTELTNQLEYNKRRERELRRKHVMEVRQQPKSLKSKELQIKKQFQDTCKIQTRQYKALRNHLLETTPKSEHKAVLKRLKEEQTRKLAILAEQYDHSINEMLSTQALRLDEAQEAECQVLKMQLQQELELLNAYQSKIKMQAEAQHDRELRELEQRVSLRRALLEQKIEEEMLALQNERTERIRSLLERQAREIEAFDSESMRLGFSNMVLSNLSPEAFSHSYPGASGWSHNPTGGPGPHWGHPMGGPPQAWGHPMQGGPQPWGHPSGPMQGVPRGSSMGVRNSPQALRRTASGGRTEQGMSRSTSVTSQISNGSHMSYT
How it was run: as §1

CHK2(h) = CHK2(h) (Homo sapiens, UniProt O96017)
How it was run: as §1

ALK(h) = ALK(h) (Homo sapiens, UniProt Q9UM73)
Sequence of ALK(h) (Q9UM73 19-1620): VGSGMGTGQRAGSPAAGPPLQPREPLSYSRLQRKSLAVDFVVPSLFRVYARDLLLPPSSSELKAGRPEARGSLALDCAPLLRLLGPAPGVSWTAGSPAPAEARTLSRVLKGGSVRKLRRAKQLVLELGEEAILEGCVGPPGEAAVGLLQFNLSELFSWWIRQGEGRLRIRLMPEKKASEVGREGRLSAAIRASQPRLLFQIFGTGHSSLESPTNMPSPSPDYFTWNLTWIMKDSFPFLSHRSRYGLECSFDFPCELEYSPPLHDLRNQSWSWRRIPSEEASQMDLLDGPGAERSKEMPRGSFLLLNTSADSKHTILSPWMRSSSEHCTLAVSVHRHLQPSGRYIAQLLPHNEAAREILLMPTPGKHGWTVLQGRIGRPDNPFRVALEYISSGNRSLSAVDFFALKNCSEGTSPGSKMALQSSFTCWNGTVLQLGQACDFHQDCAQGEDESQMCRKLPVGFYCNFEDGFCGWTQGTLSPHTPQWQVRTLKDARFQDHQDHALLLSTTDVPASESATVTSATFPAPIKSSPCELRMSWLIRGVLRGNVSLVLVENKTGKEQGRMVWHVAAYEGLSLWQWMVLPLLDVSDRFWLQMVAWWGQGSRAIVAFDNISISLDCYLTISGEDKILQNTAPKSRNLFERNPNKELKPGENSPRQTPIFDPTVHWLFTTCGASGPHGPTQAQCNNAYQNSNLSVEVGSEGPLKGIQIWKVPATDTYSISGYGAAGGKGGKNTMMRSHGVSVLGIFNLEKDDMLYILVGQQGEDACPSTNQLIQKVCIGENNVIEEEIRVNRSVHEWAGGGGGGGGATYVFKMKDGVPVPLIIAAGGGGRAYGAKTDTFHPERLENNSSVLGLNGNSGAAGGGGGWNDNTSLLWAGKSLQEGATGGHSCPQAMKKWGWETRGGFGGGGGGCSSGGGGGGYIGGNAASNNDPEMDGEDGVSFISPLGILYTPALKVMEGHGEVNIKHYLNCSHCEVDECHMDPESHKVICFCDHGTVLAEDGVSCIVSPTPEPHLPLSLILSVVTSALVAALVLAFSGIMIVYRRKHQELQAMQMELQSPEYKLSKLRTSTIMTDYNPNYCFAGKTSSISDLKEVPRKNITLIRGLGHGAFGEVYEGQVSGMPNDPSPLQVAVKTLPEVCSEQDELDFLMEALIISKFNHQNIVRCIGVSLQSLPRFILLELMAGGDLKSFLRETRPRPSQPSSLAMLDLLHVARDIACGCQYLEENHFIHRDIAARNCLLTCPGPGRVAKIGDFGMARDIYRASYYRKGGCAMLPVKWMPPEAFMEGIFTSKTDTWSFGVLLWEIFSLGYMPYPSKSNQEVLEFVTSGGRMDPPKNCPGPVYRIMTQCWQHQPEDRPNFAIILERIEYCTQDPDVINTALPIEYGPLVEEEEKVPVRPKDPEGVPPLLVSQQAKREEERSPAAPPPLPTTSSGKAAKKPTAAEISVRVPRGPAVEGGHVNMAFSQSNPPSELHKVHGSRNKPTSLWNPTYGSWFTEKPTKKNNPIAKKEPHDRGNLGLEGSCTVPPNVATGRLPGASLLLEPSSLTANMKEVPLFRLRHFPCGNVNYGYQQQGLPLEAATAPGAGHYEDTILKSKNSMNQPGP
How it was run: as §1

PKCα(h) = PKCα(h) (Homo sapiens, UniProt P17252)
How it was run: as §1

JNK3(h) = JNK3(h) (Homo sapiens, UniProt P53779)
How it was run: as §1

FGFR3(h) = FGFR3(h) (Homo sapiens, UniProt P22607)
Sequence of FGFR3(h) (P22607 23-806): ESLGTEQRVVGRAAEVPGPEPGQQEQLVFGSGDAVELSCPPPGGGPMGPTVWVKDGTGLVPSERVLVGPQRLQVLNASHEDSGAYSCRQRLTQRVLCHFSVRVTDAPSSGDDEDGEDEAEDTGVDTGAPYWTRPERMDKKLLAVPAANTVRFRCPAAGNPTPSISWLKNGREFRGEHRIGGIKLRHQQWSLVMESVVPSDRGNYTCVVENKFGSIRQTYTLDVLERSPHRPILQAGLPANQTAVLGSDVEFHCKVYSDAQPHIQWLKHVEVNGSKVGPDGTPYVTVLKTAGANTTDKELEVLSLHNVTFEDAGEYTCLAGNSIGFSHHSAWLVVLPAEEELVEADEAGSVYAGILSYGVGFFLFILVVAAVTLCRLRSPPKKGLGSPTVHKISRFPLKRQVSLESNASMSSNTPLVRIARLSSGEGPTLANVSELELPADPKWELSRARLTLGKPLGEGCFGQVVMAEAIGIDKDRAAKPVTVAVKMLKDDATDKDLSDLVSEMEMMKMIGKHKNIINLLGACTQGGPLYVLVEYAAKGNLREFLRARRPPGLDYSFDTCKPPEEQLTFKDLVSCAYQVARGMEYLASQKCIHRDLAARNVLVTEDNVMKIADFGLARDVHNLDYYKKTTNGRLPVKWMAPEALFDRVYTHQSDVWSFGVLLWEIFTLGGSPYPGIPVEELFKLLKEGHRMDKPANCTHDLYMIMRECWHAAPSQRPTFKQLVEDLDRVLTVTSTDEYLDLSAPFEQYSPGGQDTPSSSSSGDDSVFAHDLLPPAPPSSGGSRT
How it was run: as §1

Flt3(h) = target: T2, Flt3(h) (Homo sapiens, UniProt P36888)
T2 sequence (P36888 27-993): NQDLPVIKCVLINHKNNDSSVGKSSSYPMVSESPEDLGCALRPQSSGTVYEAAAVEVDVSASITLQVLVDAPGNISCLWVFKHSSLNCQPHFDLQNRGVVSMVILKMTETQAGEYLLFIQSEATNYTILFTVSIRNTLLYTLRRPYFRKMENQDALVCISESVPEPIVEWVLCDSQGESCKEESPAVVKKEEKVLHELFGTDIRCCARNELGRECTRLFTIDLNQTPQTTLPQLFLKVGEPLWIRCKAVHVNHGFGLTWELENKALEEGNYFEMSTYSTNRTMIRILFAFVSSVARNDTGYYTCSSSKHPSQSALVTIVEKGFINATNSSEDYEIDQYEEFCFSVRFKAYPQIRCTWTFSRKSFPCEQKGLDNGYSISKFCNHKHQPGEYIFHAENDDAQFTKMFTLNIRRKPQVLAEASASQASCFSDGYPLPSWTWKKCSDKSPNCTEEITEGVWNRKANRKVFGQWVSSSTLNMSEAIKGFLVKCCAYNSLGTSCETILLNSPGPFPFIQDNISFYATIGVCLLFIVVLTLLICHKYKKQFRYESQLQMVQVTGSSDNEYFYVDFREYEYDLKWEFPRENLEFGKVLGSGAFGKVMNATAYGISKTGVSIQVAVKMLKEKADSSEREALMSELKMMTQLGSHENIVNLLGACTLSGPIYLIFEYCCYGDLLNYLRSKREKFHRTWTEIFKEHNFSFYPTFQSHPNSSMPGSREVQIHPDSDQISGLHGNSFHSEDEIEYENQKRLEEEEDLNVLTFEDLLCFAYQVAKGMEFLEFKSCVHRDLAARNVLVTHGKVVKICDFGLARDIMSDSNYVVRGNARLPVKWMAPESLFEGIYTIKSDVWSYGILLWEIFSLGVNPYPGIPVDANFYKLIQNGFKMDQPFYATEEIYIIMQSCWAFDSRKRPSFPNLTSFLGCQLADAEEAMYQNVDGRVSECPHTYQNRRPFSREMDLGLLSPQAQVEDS
How it was run: as §1

Aurora-A(h) = target: T3, Aurora-A(h) (Homo sapiens, UniProt O14965)
T3 sequence (O14965 1-403): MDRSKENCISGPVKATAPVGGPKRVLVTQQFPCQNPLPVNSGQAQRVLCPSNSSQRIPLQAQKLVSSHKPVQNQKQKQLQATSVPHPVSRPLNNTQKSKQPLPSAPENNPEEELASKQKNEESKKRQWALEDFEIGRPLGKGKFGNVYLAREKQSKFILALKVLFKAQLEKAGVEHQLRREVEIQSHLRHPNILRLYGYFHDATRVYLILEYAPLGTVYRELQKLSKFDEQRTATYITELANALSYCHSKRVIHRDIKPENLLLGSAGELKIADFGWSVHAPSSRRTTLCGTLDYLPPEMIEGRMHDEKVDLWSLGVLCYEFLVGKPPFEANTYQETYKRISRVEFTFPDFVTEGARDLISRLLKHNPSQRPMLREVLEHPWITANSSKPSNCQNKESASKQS
How it was run: as §1

Plk1(h) = Plk1(h) (Homo sapiens, UniProt P53350)
Sequence of Plk1(h) (P53350 whole entry): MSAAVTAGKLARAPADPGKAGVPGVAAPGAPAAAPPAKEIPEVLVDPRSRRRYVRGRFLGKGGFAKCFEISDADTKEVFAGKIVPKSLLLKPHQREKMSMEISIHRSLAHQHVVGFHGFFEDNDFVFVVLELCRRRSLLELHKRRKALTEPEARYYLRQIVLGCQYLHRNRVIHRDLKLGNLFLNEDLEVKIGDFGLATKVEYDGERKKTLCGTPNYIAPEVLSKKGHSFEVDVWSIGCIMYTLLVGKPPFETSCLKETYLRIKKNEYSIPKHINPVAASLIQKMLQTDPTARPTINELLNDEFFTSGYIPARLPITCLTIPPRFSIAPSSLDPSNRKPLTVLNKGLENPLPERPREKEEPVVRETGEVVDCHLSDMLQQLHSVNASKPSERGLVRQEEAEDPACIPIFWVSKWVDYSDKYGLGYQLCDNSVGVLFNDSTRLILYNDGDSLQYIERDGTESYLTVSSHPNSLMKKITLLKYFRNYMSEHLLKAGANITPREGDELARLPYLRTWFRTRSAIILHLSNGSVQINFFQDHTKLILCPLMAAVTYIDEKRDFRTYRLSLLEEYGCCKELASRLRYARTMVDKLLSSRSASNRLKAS
How it was run: as §1

Sequence of CDK9/cyclin T1(h) (P50750 whole entry): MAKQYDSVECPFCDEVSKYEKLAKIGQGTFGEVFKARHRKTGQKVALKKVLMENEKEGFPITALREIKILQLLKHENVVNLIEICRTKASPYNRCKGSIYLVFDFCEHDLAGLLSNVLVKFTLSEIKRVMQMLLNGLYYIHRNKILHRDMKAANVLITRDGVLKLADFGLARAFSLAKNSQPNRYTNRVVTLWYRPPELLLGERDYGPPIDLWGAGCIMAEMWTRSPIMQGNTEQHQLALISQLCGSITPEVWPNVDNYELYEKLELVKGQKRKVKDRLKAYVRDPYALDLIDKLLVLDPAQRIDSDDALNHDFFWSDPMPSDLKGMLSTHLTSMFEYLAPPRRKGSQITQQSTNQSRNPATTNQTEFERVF
Sequence of CDK9/cyclin T1(h) (O60563 whole entry partner): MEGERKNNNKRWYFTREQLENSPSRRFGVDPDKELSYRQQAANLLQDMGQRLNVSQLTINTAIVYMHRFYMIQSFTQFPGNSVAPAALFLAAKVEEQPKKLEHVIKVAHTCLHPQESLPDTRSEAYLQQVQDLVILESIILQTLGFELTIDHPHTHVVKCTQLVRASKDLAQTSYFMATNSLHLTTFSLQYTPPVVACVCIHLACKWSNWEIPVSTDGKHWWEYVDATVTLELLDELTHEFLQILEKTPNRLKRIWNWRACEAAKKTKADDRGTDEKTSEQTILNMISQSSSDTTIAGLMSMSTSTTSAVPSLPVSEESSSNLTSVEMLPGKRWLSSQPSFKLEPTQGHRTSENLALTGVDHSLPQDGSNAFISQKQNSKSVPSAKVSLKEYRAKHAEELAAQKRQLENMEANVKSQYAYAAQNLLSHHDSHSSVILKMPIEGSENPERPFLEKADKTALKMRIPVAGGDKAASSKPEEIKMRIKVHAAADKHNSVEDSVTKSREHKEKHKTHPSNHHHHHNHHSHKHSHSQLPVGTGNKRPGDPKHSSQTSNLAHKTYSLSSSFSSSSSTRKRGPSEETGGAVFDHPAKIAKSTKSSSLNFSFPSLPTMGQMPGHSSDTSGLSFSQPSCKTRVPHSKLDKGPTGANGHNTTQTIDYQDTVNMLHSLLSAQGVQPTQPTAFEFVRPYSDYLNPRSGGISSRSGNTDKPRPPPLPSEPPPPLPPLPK

| Structure (SMILES) | inhibition at 1 µM (CDK9/cyclin T1(h)) [%] | inhibition at 1 µM (TAO1(h)) [%] | inhibition at 1 µM (CHK2(h)) [%] | inhibition at 1 µM (ALK(h)) [%] | inhibition at 1 µM (PKCα(h)) [%] | inhibition at 1 µM (JNK3(h)) [%] | inhibition at 1 µM (FGFR3(h)) [%] | inhibition at 1 µM (Flt3(h)) [%] | inhibition at 1 µM (Aurora-A(h)) [%] | inhibition at 1 µM (Plk1(h)) [%] |
| --- | --- | --- | --- | --- | --- | --- | --- | --- | --- | --- |
| Nc1n[nH]c2ccc(-c3ccnc4[nH]c(-c5ccccc5)cc34)cc12 [Compound 4] | 98 | 73 | 28 | 56 | 5 | 99 | 77 | 102 | 88 | -5 |
| Nc1n[nH]c2ccc(-c3ccnc4[nH]c(-c5cccc(OCc6ccccc6)c5)cc34)cc12 [Compound 5r [SU1261]] | 98 | 16 | 13 | 27 | 23 | 86 | 41 | 46 | 52 | -1 |
| Nc1n[nH]c2ccc(-c3ccnc4[nH]c(-c5ccnc(OCc6ccccc6)c5)cc34)cc12 [Compound 6g [SU1349]] | 99 | 5 | -5 | 5 | -1 | 62 | 0 | 36 | 36 | 2 |
